Reference: PubChem BioAssay AID248 (DTP/NCI, 2004)
“And” between values parts separate entries of the source, which are not always exact repeats. Identical values can stand only once. Inconclusive results and toxic doses are left out. Cut-off read from the data, not from the text of the source: active = T/C of 150% or more; inactive = T/C below 125%.

Tested on: L1210 leukemia ip in BDF1 mice, survival T/C
Assay: NCI In Vivo Anticancer Drug Screen. Data for tumor model L1210 Leukemia (intraperitoneal) in B6D2F1 (BDF1) mice
Conditions: endpoint: mean survival time, higher = longer survival
In short: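 Survival endpoint. Drug-treated group vs vehicle group, expressed as T divided by C. Tumor passaged by transplantation.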

[1] = dose: 50.0 mg/kg/injection, schedule: Q01DX001 (ip), vehicle: saline
[2] = dose: 100.0 mg/kg/injection, schedule: Q01DX001 (ip), vehicle: saline
[3] = dose: 200.0 mg/kg/injection, schedule: Q01DX001 (ip), vehicle: saline
[4] = dose: 400.0 mg/kg/injection, schedule: Q01DX001 (ip), vehicle: saline
[5] = dose: 50.0 mg/kg/injection, schedule: Q01DX009 (ip), vehicle: acetone
[6] = dose: 100.0 mg/kg/injection, schedule: Q01DX009 (ip), vehicle: acetone
[7] = dose: 200.0 mg/kg/injection, schedule: Q01DX009 (ip), vehicle: acetone
[8] = dose: 100.0 mg/kg/injection, schedule: Q04DX003 (ip), vehicle: Klucel (hydroxypropylcellulose) (HPC)
[9] = dose: 200.0 mg/kg/injection, schedule: Q04DX003 (ip), vehicle: Klucel (hydroxypropylcellulose) (HPC)
[10] = dose: 400.0 mg/kg/injection, schedule: Q04DX003 (ip), vehicle: Klucel (hydroxypropylcellulose) (HPC)
[11] = dose: 100.0 mg/kg/injection, schedule: Q04DX003 (ip), vehicle: saline
[12] = dose: 200.0 mg/kg/injection, schedule: Q04DX003 (ip), vehicle: saline
[13] = dose: 400.0 mg/kg/injection, schedule: Q04DX003 (ip), vehicle: saline
[14] = dose: 100.0 mg/kg/injection, schedule: Q04DX002 (ip), vehicle: Klucel (hydroxypropylcellulose) (HPC)
[15] = dose: 200.0 mg/kg/injection, schedule: Q04DX002 (ip), vehicle: Klucel (hydroxypropylcellulose) (HPC)
[16] = dose: 400.0 mg/kg/injection, schedule: Q04DX002 (ip), vehicle: Klucel (hydroxypropylcellulose) (HPC)

Measured: T/C

O=C(O)C1(C(=O)O)CC(c2ccccc2)C1
inactive: dose: 75.0 mg/kg/injection, schedule: Q04DX003 (ip), vehicle: saline with Tween-80 101 % of control | dose: 150.0 mg/kg/injection, schedule: Q01DX009 (ip), vehicle: saline with Tween-80 91 % of control | dose: 150.0 mg/kg/injection, schedule: Q04DX003 (ip), vehicle: saline with Tween-80 95 % of control | dose: 300.0 mg/kg/injection, schedule: Q01DX009 (ip), vehicle: saline with Tween-80 91 % of control | dose: 300.0 mg/kg/injection, schedule: Q04DX003 (ip), vehicle: saline with Tween-80 101 % of control

O=C(CCCC(=O)NNC(=O)Nc1ccc(N=Nc2ccccc2)cc1)NNC(=O)Nc1ccc(N=Nc2ccccc2)cc1
inactive: [1] 93 % of control | [2] 102 % of control | [3] 96 % of control | [4] 100 % of control

CN(C)C(=S)Oc1ccc(S(=O)(=O)F)c(Cl)c1Cl
inactive: dose: 25.0 mg/kg/injection, schedule: Q04DX002 (ip), vehicle: saline with Tween-80 92 % of control | dose: 50.0 mg/kg/injection, schedule: Q04DX002 (ip), vehicle: saline with Tween-80 92 % of control | dose: 100.0 mg/kg/injection, schedule: Q04DX002 (ip), vehicle: saline with Tween-80 86 % of control

CSC(=O)N=Nc1c(O)n(C)c(=O)n(C)c1=O
inactive: dose: 12.5 mg/kg/injection, schedule: Q01DX009 (ip), vehicle: saline with Tween-80 104 % of control | dose: 25.0 mg/kg/injection, schedule: Q01DX009 (ip), vehicle: saline with Tween-80 97 % of control | dose: 50.0 mg/kg/injection, schedule: Q01DX009 (ip), vehicle: saline with Tween-80 97 % of control and 87 % of control

CN(C)C1C2(C)CCC(C2)C1(C)C (centres undefined)
inactive: dose: 5.0 mg/kg/injection, schedule: Q01DX001 (ip), vehicle: carboxymethylcellulose (CMC) 101 % of control | dose: 10.0 mg/kg/injection, schedule: Q01DX001 (ip), vehicle: carboxymethylcellulose (CMC) 98 % of control | dose: 20.0 mg/kg/injection, schedule: Q01DX001 (ip), vehicle: carboxymethylcellulose (CMC) 98 % of control | dose: 40.0 mg/kg/injection, schedule: Q01DX001 (ip), vehicle: carboxymethylcellulose (CMC) 95 % of control

C[n+]1cccc2cc(C(=O)O)ccc21
inactive: [5] 101 % of control | [6] 97 % of control | [7] 93 % of control

COC(=O)/C=C(\C(=O)OC)n1ccccc1=O
inactive: dose: 5.0 mg/kg/injection, schedule: Q01DX001 (ip), vehicle: saline 101 % of control | dose: 10.0 mg/kg/injection, schedule: Q01DX001 (ip), vehicle: saline 98 % of control | dose: 20.0 mg/kg/injection, schedule: Q01DX001 (ip), vehicle: saline 95 % of control | dose: 40.0 mg/kg/injection, schedule: Q01DX001 (ip), vehicle: saline 102 % of control

CC(=O)C(CCS(C)(=O)=O)(CCS(C)(=O)=O)c1ccccc1
inactive: [8] 112 % of control | [9] 108 % of control | [10] 100 % of control

CCCCOCCOCCOc1ccc(C(=O)O)cc1
inactive: [5] 102 % of control | [6] 97 % of control | [11] 94 % of control | [7] 102 % of control | [12] 94 % of control

CCOCCS(=O)(=O)CCS(=O)(=O)CCOCC
inactive: dose: 100.0 mg/kg/injection, schedule: Q01DX009 (ip), vehicle: saline 95 % of control | dose: 200.0 mg/kg/injection, schedule: Q01DX009 (ip), vehicle: saline 103 % of control | dose: 400.0 mg/kg/injection, schedule: Q01DX009 (ip), vehicle: saline 108 % of control

Cc1ccc(S(=O)(=O)N(CCC(=O)O)c2ccccc2)cc1
inactive: dose: 100.0 mg/kg/injection, schedule: Q01DX009 (ip), vehicle: saline with Tween-80 90 % of control | dose: 200.0 mg/kg/injection, schedule: Q01DX009 (ip), vehicle: saline with Tween-80 97 % of control

O=c1[nH]ccn2cncc12
inactive: [11] 93 % of control | [12] 103 % of control | [13] 106 % of control

Cc1ccccc1OP(=S)(NN)Oc1ccccc1C
inactive: [14] 93 % of control | [15] 100 % of control | [16] 100 % of control

O=C(Nc1ccc(S(=O)(=O)Nc2ccc(N=Nc3ccccc3)cc2)cc1)C(SC1=NC=NC2=NC=NC21)(SC1=NC=NC2=NC=NC21)SC1=NC=NC2=NC=NC21 (centres undefined)
inactive: dose: 75.0 mg/kg/injection, schedule: Q04DX003 (ip), vehicle: saline 104 % of control | dose: 150.0 mg/kg/injection, schedule: Q04DX003 (ip), vehicle: saline 109 % of control | dose: 300.0 mg/kg/injection, schedule: Q04DX003 (ip), vehicle: saline 100 % of control

O=C(Nc1ccccc1)OC(C[N+](=O)[O-])C(Cl)(Cl)Cl (centres undefined)
inactive: dose: 75.0 mg/kg/injection, schedule: Q01DX001 (ip), vehicle: carboxymethylcellulose (CMC) 98 % of control

CCC(O)C(c1ccccc1)(c1ccccc1)C(C)CN(C)C (centres undefined)
inactive: [2] 100 % of control | [3] 97 % of control

Nc1ncnc2c1c(-c1nc(=S)[nH][nH]1)cn2C1OC(CO)C(O)C1O (centres undefined)
inactive: dose: 100.0 mg/kg/injection, schedule: Q01DX005 (ip), vehicle: saline 106 % of control | dose: 200.0 mg/kg/injection, schedule: Q01DX005 (ip), vehicle: saline 108 % of control

CCCCCCCCCCCCCCCCNc1cccc2ccccc12
inactive: [8] 90 % of control | [9] 90 % of control | [10] 91 % of control

CCCCCCCCCCCCCCCCCCNC(=O)NNC(=O)CCCC(=O)NNC(=O)NCCCCCCCCCCCCCCCCCC
inactive: [1] 91 % of control | [2] 97 % of control | [3] 100 % of control | [4] 97 % of control

CCOP(=O)(Cc1ccccc1)OCC
inactive: [11] 110 % of control | [12] 103 % of control | [13] 98 % of control

CC(C)CC(C)NCC(C)OC(=O)c1ccc(N)cc1 (centres undefined)
inactive: dose: 75.0 mg/kg/injection, schedule: Q01DX001 (ip), vehicle: other 110 % of control

CCCCOC(=O)C1(C)OC1c1ccccc1 (centres undefined)
inactive: dose: 100.0 mg/kg/injection, schedule: Q04DX002 (ip), vehicle: saline 101 % of control | dose: 200.0 mg/kg/injection, schedule: Q04DX002 (ip), vehicle: saline 89 % of control | dose: 400.0 mg/kg/injection, schedule: Q04DX002 (ip), vehicle: saline 101 % of control

Cc1ccc(NC(=O)c2cccc(F)c2)cc1Cl
inactive: dose: 100.0 mg/kg/injection, schedule: Q01DX001 (ip), vehicle: Klucel (hydroxypropylcellulose) (HPC) 97 % of control | dose: 100.0 mg/kg/injection, schedule: Q01DX009 (ip), vehicle: Klucel (hydroxypropylcellulose) (HPC) 94 % of control and 92 % of control | [14] 101 % of control and 104 % of control | dose: 200.0 mg/kg/injection, schedule: Q01DX001 (ip), vehicle: Klucel (hydroxypropylcellulose) (HPC) 100 % of control | dose: 200.0 mg/kg/injection, schedule: Q01DX009 (ip), vehicle: Klucel (hydroxypropylcellulose) (HPC) 105 % of control and 92 % of control | [15] 96 % of control and 104 % of control | dose: 400.0 mg/kg/injection, schedule: Q01DX001 (ip), vehicle: Klucel (hydroxypropylcellulose) (HPC) 100 % of control | dose: 400.0 mg/kg/injection, schedule: Q01DX009 (ip), vehicle: Klucel (hydroxypropylcellulose) (HPC) 97 % of control and 92 % of control | [16] 104 % of control and 109 % of control

CCOC(=O)N1CCN2C(=O)N(CC)CCC2C1 (centres undefined)
inactive: [2] 93 % of control | [3] 93 % of control | [4] 94 % of control
